Experiments:
[1] = tested on: non-senescent aortic endothelial (Endo Aort) cells and pre-adipocytes (Pread); experiment: Nutlin-3a toxicity, cell counts of non-senescent endothelial cells and pre-adipocytes; format: cell-based; settings: 0, 2.5, 10 μM, 11 days
Experimental: Non-senescent aortic endothelial (Endo Aort) cells and pre-adipocytes (Pread) were also treated with varying concentrations (0, 2.5 μM, and 10 μM) of Nutlin-3a for a period of 11 days to assess Nutlin-3a toxicity, as described above. Cell counts were taken at the start at Day 0 (NS start) and at the end of Nutlin-3a treatment (NS 0). The difference between counts of cells not treated with Nutlin-3a on day 11 (NS 0) and cell counts from NS start reflects the cell growth over the indicated time period. […] Decrease in apparent survival between NS 0 and NS 2.5 and between NS 0 and NS 10 reflects a decrease in cell growth.

[2] = tested on: p21, p16, IL-1a, CXCL-1, IL-6, IL-8 expression in senescent IMR90 cells; experiment: qPCR of senescence markers and SASP factors in irradiated senescent IMR90 cells treated with Nutlin-3a; format: cell-based, human
Experimental: Primary human fibroblast (IMR90) cells were induced to senesce by applying 10 Gy of irradiation. Seven days after irradiation (Day 0), cells were treated with 10 μM Nutlin-3a or vehicle (DMSO) for nine days (Day 9). The drug or vehicle was refreshed every three days. Drug/vehicle was removed at Day 9 and the cells were cultured for an additional three days (Day 12) in media without drug or DMSO. Cells were then collected, mRNA extracted, and cDNA prepared. Quantitative PCR (qPCR) was then performed to detect expression of various genes. Cells were also collected at Day 12 after drug/vehicle had been removed for three days. The data are presented as an average of three samples. Data were normalized to actin and depicted as a ratio to non-senescent cells.

[3] = tested on: pATM, γH2AX, IkBa, MDM2, p53, p21 in senescent IMR90 cells; experiment: Immunoblot of DNA damage response proteins in irradiated senescent IMR90 cells treated with Nutlin-3a; format: cell-based, human
Experimental: Primary human fibroblast (IMR90) cells were induced to senesce by applying 10 Gy of irradiation. Seven days after irradiation (Day 0), cells were treated with 10 μM Nutlin-3a or vehicle (DMSO) for nine days (Day 9). The drug or vehicle was refreshed every three days. Drug/vehicle was removed at Day 9 and the cells were cultured for an additional six days in media without drug or DMSO, changing media every three days. Cells were collected at Day 0 (non-senescent cells), Day 9, Day 12, and Day 15, and protein extracted and processed for immunoblotting (Western blotting). Two samples were processed at each time point; the results are provided for one sample in FIG. 14.

C57BL/6J mice = experiment: Rotarod motor coordination in 23 month old C57BL/6J mice; format: in vivo, mouse
Experimental: A group of 34 C57BL/6J mice were tested for motor coordination in a rotarod at 23 months of age. Mice were tested for 4 consecutive days. Each session consisted of 4 runs in which the speed of the rotating rod increased from 4 to 40 rpm over 5 minutes. Mice were allowed to run until they fell. The latency to fall was recorded for each run, and averaged to obtain a single value for each session. Half of the mice were then treated with 50 mg/kg nutlin-3a for 14 consecutive days, via IP injection, while the rest of them were sham injected. 3 weeks after the last day of treatment, motor coordination was assessed following the described procedure.
Values higher than 1 correspond to an increase in motor coordination after treatment. The average of 4 runs for each animal and the average (±SEM) for each group are shown.
The average of 4 runs is shown for each day (±SEM).

[4] = tested on: p16-3MR mice fed a high fat diet; experiment: Glucose tolerance, insulin tolerance and body parameters in high fat fed p16-3MR mice; format: in vivo, mouse
Experimental: Groups of p16-3MR mice (n=9) were fed a high fat diet for four months mice or a regular chow diet. Animals were then treated with ganciclovir (3 rounds of 25 mg/kg ganciclovir administered daily for five consecutive days) or vehicle. A glucose bolus was given at time zero, and blood glucose was monitored at 20, 30, 60, and 120 minutes after delivering glucose to determine glucose disposal (see FIG. 69A). […] Insulin sensitivity was also determined (Insulin Tolerance Testing (ITT)). […] Changes in weight, body composition, and food intake were also monitored.

| SMILES | toxicity to non-senescent aortic endothelial cells and pre-adipocytes (percent growth) [1] | level of p21 mRNA, ratio to non-senescent cells ([2]; 10 μM, day 9) | level of IL-1a mRNA ([2]; 10 μM, day 9 and day 12) | levels of CXCL-1, IL-6 and IL-8 mRNA ([2]; 10 μM, day 9 and day 12) | level of p16 mRNA ([2]; 10 μM, drug present (day 9)) | level of p16 mRNA ([2]; day 12, three days after drug removal) | phosphorylation of the kinase ATM (pATM S1981) ([3]; 10 μM, also after drug removal) | level of IkBa ([3]; after drug is removed) | phosphorylation of H2AX (γH2AX) ([3]; after treatment and after drug removal) | levels of MDM2, p53 and p21 protein ([3]; drug present, decreased when drug removed) | rotarod performance (latency to fall) (C57BL/6J mice; 50 mg/kg IP 14 days, after three days of training, p<0.05) | ratio of latency to fall, fourth session after treatment / fourth baseline session (C57BL/6J mice; p<0.01) | rotarod performance over the training period (C57BL/6J mice; p<0.01, 2-way ANOVA) | insulin tolerance testing: decrease in blood glucose ([4]; 0, 14, 30, 60 and 120 minutes) | glucose tolerance test AUC versus vehicle ([4]; 3 rounds of 25 mg/kg daily for five days) | Hemoglobin A1c ([4]; high fat diet) | body weight, body composition (percent of fat), food intake ([4]; mouse, in vivo) |
| --- | --- | --- | --- | --- | --- | --- | --- | --- | --- | --- | --- | --- | --- | --- | --- | --- | --- |
| COc1ccc(C2=N[C@@H](c3ccc(Cl)cc3)[C@@H](c3ccc(Cl)cc3)N2C(=O)N2CCNC(=O)C2)c(OC(C)C)c1 [Nutlin-3a] | reduces proliferation but is non-toxic | approximately 90 fold | decreased only after Nutlin-3a had been removed | reduced when Nutlin-3a was present and remained lower after drug removal | did not change | decrease | lower | approaches the level of IkBa in non-senescent cells | declining levels of phosphorylation | elevated | increased rotarod performance | higher average ratio | better performance |  |  |  |  |
| Nc1nc(O)c2ncn(COC(CO)CO)c2n1 [ganciclovir] |  |  |  |  |  |  |  |  |  |  |  |  |  | greater decrease in blood glucose | significantly lower | lower | did not alter |

From patent US20190022225A1, “PROTOCOL FOR INCREASING LIFE EXPECTANCY IN A TEST SUBJECT” (Mayo Foundation for Medical Education and Research, priority 2015, published 2019)
